Measured values as given in US6376510B1, “Neuromuscular relaxants” (Newlaxant LLC, priority 1997, dated 2002).

What was measured:
[1] = tested on: anesthetized rats (evoked responses of anterior tibial muscle); assay: In vivo neuromuscular block and cardiovascular side effects, anesthetized rat (Example 8, Table 3)
Procedure, shortened: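 Pentobarbital-anesthetized (i.p.), ventilated adult male rats given saline-dissolved agents i.v.; anterior tibial EMG responses to supramaximal single or train-of-four sciatic/peroneal stimuli, plus 0.1 or 1 Hz stimulation. Doses for 50%, 80%, 90% block derived. Onset: minutes to 80-85% block; RI: 25-75% spontaneous recovery; vagal block, heart rate and blood pressure changes (%) at 80-85% blocking dose.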

[2] = tested on: anesthetized cats (evoked responses of anterior tibial muscle); assay: animal or person
Procedure, shortened: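 Adult cats anesthetized i.p. with 70 mg/kg alpha chloralose plus 0.5 g/kg ethylurethane; agents in saline given i.v. Anterior tibial muscle responses to supramaximal single or train-of-four stimuli of sciatic or peroneal nerve recorded electromyographically and mechanomyographically, alongside blood pressure and heart rate.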

[3] = tested on: anesthetized juvenile pigs; assay: animal or person; type: in vivo; settings: pig
Procedure, shortened: (§1)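 Electromyographic and mechanomyographic responses quantified. Monkeys sedated with intramuscular ketamine, then general anesthesia with intravenous pentobarbital and propofol; juvenile pigs induced with inhaled halothane.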

[4] = tested on: anesthetized monkeys; assay: In vivo neuromuscular block and cardiovascular side effects, monkey (Example 8, Table 6)
Procedure, shortened: as §1

[5] = tested on: rabbits; assay: In vivo neuromuscular block and cardiovascular side effects, rabbit (Example 8, Table 7)
[6] = tested on: dogs; assay: animal or person; type: in vivo; settings: dog
[7] = tested on: anesthetized rats (evoked responses of anterior tibial muscle); assay: Muscle relaxant (neuromuscular blocking) properties, anesthetized rat (Example 9, Table 9); settings: for Onset: time to 80-85% neuromuscular block
Source text: (§2) The data on muscle relaxant action were obtained on anesthetized rats, and when indicated, also on juvenile pigs
(§3) Adult, male albino rats were anesthetized with pentobarbital injected intraperitoneally. Juvenile, Duroc pigs 9-12 kg body weight were anesthetized with Chloralose Nembutal sodium mixture intraperitoneally after deep sedation with inhaled halothane. The trachea was cannulated for artificial respiration via a small animal respirator. The carotid artery was cannulated for recording blood pressure via a transducer and heart rate by a cardiotachograph on a polygraph. One external jugular vein was cannulated for i.v. drug administration. Neuromuscular function was monitored by electromyography, recording evoked responses from the anterior tibial muscle as a result of supramaximal nerve stimuli consisting of single or “train-of-four” rectangular pulses of 0.1-0.2 msec duration every 10-12 seconds, delivered to the sciatic or common peroneal nerve by a laboratory nerve stimulator. Another mode of stimulation included repeated single stimuli delivered at 0.1 Hz or 1 Hz. […] The agents were dissolved in physiologic saline and injected intravenously at appropriate time intervals. The intensity, onset, and duration of neuromuscular block and its type were determined with each agent. Through administering several doses, the doses corresponding to 50%, 80% and 90% neuromuscular block were determined. All agents were compared with selected standard neuromuscular blocking compounds, e.g., rocuronium.
(§4) Onset=time in minutes to 80-85% neuromuscular block.
(§5) RI=recovery index, minutes, spontaneous recovery, 25-75% neuromuscular response.
(§6) VB=vagal block, %, at 80-85% neuromuscular blocking dose.
(§7) HR=change in heart rate, %, at 80-85% neuromuscular blocking dose.
(§8) BP=change in arterial blood pressure, %, at 80-85% neuromuscular blocking dose.

[8] = tested on: anesthetized juvenile Duroc pigs; assay: animal or person; settings: for % VB at ED80 nmb (vagal block) / BP (change in arterial blood pressure) / HR (change in heart rate): in vivo; for RI (recovery index): spontaneous recovery, 25-75% neuromuscular response; for Onset: time to 80-85% neuromuscular block
Source text: as §2, §3, §4, §5, §6, §7, §8

[9] = time to 80-85% neuromuscular block

## C=CC[N+]1([C@H]2C[C@H]3[C@@H]4CC[C@H]5C[C@H](O)[C@@H](N6CCOCC6)C[C@]5(C)[C@H]4CC[C@]3(C)[C@H]2OC(C)=O)CCCC1 [Rocuronium, reference compound]
[1]; Rattus norvegicus, iv
  ED50: 0.45 mg/kg
[1]; male, rat, in vivo
  VB (vagal block): 60%
  ΔBP (change in arterial blood pressure): 0%
  ΔH (change in heart rate): 0%
[1]; rat, in vivo
  RI (recovery index): 1.3 min
[1]; rat, time to 80-85% neuromuscular block
  Onset: 0.95 min
[2]; Felis catus, iv
  ED50: 0.185 mg/kg
[2]; cat, in vivo
  ΔBP (change in arterial blood pressure): 0%
  ΔH (change in heart rate): 0%
[2]; cat, time to 80-85% neuromuscular block
  Onset: 2.1 min
[2]; in vivo
  RI (recovery index): 3.8 min
[3]; Sus scrofa, intravenous dose causing 50% neuromuscular block, read-out: ED50
  ED50: 0.35 mg/kg
[3]; in vivo
  RI (recovery index): 3.2 min
  VB (vagal block): 47%
  ΔBP (change in arterial blood pressure): 0%
  ΔH (change in heart rate): 0%
[3]; [9]
  Onset: 1.5 min
[4]; Primates, intravenous dose causing 50% neuromuscular block, read-out: ED50
  ED50: 0.013 mg/kg
[4]; in vivo
  RI (recovery index): 5.6 min
  ΔBP (change in arterial blood pressure): 0%
  ΔH (change in heart rate): 0%
[4]; [9]
  Onset: 3.5 min
[5]; Oryctolagus cuniculus, intravenous dose causing 50% neuromuscular block, read-out: ED50
  ED50: 0.03 mg/kg
[5]; in vivo
  RI (recovery index): 2.4 min
  ΔBP (change in arterial blood pressure): 0%
  ΔH (change in heart rate): 0%
[5]; [9]
  Onset: 1.1 min
[6]; Canis lupus familiaris, intravenous dose causing 50% neuromuscular block, read-out: ED50
  ED50: 0.076 mg/kg
[6]; in vivo
  RI (recovery index): 3.3 min
  ΔBP (change in arterial blood pressure): 0%
  ΔH (change in heart rate): 0%
[6]; [9]
  Onset: 1.9 min
[7]; Rattus norvegicus, iv
  ED50: 0.45 mg/kg
[7]; male, rat, in vivo
  % VB at ED80 nmb (vagal block): 60%
  BP (change in arterial blood pressure): 0%
  HR (change in heart rate): 0%
[7]; rat, in vivo
  RI (recovery index): 1.3 min
[7]; rat
  Onset: 0.95 min
[8]; Duroc, pig
  % VB at ED80 nmb (vagal block): 47%
  BP (change in arterial blood pressure): 0%
  HR (change in heart rate): 0%
[8]; Sus scrofa, iv
  ED50: 0.35 mg/kg
[8]; pig
  RI (recovery index): 3.2 min
  Onset: 1.5 min

## Bis[N-(3,4-diacetoxybenzyl)-6-azabicyclo[3.2.1]octanium-3-yl]cyclohexane-1,3-dicarboxylate dibromide
[7]; rat, in vivo
  % VB at ED80 nmb (vagal block): 5 (2) %
  BP (change in arterial blood pressure): 0%
  HR (change in heart rate): 0%
[7]; rat, intravenous dose causing 50% neuromuscular block, spread in brackets
  ED50: 384 (42) μg/kg
[7]; rat, spontaneous recovery, 25-75% neuromuscular response
  RI (recovery index): 0.5 (0.04) min
[7]; rat
  Onset: 0.7 (0.05) min
[8]; pig
  % VB at ED80 nmb (vagal block): 70%
  BP (change in arterial blood pressure): 0%
  HR (change in heart rate): 0%
  RI (recovery index): 0.85 min
  Onset: 0.5 min
[8]; pig, intravenous dose causing 50% neuromuscular block
  ED50: 0.78 mg/kg
